The values below come from patent publication US20100272696A1, “Human Bone-Forming Cells In The Treatment of Inflammatory Rheumatic Diseases” (BONE THERAPEUTICS S.A., priority 2007, published 2010).

Assay [1] concerns Carrageenan-Induced Ankle/Paw Inflammation. Description: Model of Carrageenan-Induced Ankle/Paw Inflammation (1). It counts as in vivo, SWISS mice. The conditions noted are these: DEX 1 mg/kg, OB 1*10^6, FIG. 3. The procedure:
Sigma, Switzerland) in PBS into the hind paw of 8 weeks old SWISS mice; each animal receiving a single injection in each hind paw (Table 3). […] Sigma Switzerland) at a concentration of 1 mg/kg, or 1*10^6 human bone-forming cells (OB) (derived from bone marrow mesenchymal stromal cells as described in Example 1A) or a combination of DEX and OB. [table]

Assay [2] has the same test system. Description: Model of Carrageenan-Induced Ankle/Paw Inflammation (2). It counts as in vivo, SWISS mice. The conditions noted are these: DEX 1 mg/kg, OB 1*10^6, FIG. 4. The procedure:
Inflammation was induced by injection of a solution containing 1% lambda carrageenan (CARRA; Sigma, Switzerland) in PBS into the hind paw of 8 weeks old SWISS mice; each animal receiving a single injection in each hind paw (Table 4). Carrageenan injected animals received immediately after injection or PBS only, or a solution of Dexamethasone (DEX; Sigma Switzerland) at a concentration of 1 mg/kg, or 1*10^6 human bone-forming cells (OB) (derived from bone marrow mesenchymal stromal cells as described in Example 1A).
Under isoflurane sedation, the circumference of ankles and paws was measured using a digital caliper before the injection at T0 and at T1, T4, T6 and T24; respectively before CARRA administration, and 1 h, 4 h, 6 h and 24 hours after the injection.

For `C[C@@H]1C[C@H]2[C@@H]3CCC4=CC(=O)C=C[C@]4(C)[C@@]3(F)[C@@H](O)C[C@]2(C)[C@@]1(O)C(=O)CO` [Dexamethasone], the “inhibition of inflammation (ankle diameter)” value in assay [1] (1 h after carrageenan) and in assay [1] (4 h after carrageenan) was 100% in each case. For the same compound, the “inhibition of inflammation (paw diameter)” value in assay [2] (1 h after carrageenan) is listed as 100%; in assay [2] (6 h after carrageenan), 70%; in assay [2] (24 h after carrageenan), 38%.
